Measured values published in patent US12060576B2, “Compositions and methods for producing megakaryocytes” (Stellular Bio, Inc., priority 2018, dated 2024).

Tests used:
[1] = tested on: PBG1 iPSCs; test: Phase I directed differentiation of PBG1 iPSCs to hemogenic endothelium, immunofluorescence staining of CD31 and CD34; format: cell-based, human; conditions: Laminin 521 matrix, versus control without WNT agonist
Description: FIG. 26A, FIG. 26B, and FIG. 26C depict immunofluorescence microscopy images of Day 6 Phase I cultures on Laminin 521. FIG. 26A depicts a control culture without WNT agonist.

[2] = tested on: PBG1 iPSCs; conditions: 0.6 uM in the first 48 hours of Phase I; Day 6+4; Laminin 521 matrix; versus control
[3] = tested on: PBG-1 iPSCs; test: Directed differentiation of PBG-1 to preMKs and MKs on a recombinant Laminin-521 matrix compared with Collagen IV, flow cytometry; format: cell-based, human; conditions: 3 days of Phase III (Day 6+6+3); preMKs from Laminin-521 or Collagen IV cultures
Description: FIG. 23A, FIG. 23B, and FIG. 23C depict use of recombinant Laminin 521 to support production and release of megakaryocytic progenitors in Phase II of directed differentiation of PBG1 cells. FIG. 23A depicts representative flow cytometric data from Phase II of PBG1 differentiation cultures utilizing a supportive matrix of 4.2 ug/cm^2 human Collagen IV. FIG. 23B depicts representative flow cytometric data from Phase II of PBG1 differentiation cultures utilizing a supportive matrix of 0.13 ug/cm^2 recombinant human Laminin 521. FIG. 23C depicts the cumulative yields of released preMKs (i.e. viable CD41+CD43+CD14−) per 6-well equivalent (i.e. 2 ml of media, 9.5 cm^2 surface area) between day 6+4 and 6+8 of Phase II directed differentiation cultures initiated with PBG1 iPSCs, utilizing a supportive matrix of 4.2 ug/cm^2 human Collagen IV or 0.13 ug/cm^2 recombinant human Laminin 521.
FIG. 25A and FIG. 25B show flow cytometric subset breakdowns of Phase III (Day 6+6+3) cultures. […] Non-MKs are CD61−, Immature MKs are CD61+CD42a−CD42b−, Apoptotic MKs are CD61+CD42a+CD42b−, and Mature MKs are CD61+CD42a+CD42b+.
Collagen IV is purified from human placental material and is only available as a Research Use Only reagent. […]

Cc1c[nH]c(-c2cnc(NCCNc3ccc(C#N)cn3)nc2-c2ccc(Cl)cc2Cl)n1 [CHIR99021]
Phase I differentiation efficiency at day 6 (CD31 and CD34 staining) ([1]; 6 uM for the first 48 hours of differentiation only): dramatic increase

CHIR98014
Phase II output of preMKs (visual estimation of the number of CD41+ cells) [2]: higher output during Phase II | Phase I differentiation efficiency at day 6 (CD31 and CD34 staining) ([1]; 0.6 uM for the first 48 hours of differentiation only): dramatic increase

Laminin-521: recombinant human laminin 521, supportive matrix replacing Collagen IV for directed differentiation
Proportion of CD61+ cells co-expressing CD42a and CD42b in Phase III versus Collagen IV [3]: found to be similar
